Reference: PMC2910439, “Imperatoxin A, a Cell-Penetrating Peptide from Scorpion Venom, as a Probe of Ca^2+-Release Channels/Ryanodine Receptors” (Pharmaceuticals, 2010)
Starred links: 1 amine or outer side, 2 acyl side, 3 side chain; linkers in the order of their positions; H or OH if unused. Positions of bridges follow the written chain, without caps; N, C: chain ends. Non-standard residues stand in square brackets, D forms with d. Residues, ends and D or L forms follow the SMILES beside them. *: point of attachment. X1 = CC1CC(C)(C)Nc2c1cc1c(c2S(=O)(=O)O)Oc2c(S(=O)(=O)O)c3c(cc2=C1c1c(Cl)c(SCC(=O)*)c(Cl)c(Cl)c1C(=O)O)C(C)CC(C)(C)N=3; X2 = N=C(CCCSC1CC(=O)N(CCCCCN[*:1])C1=O)NCC(=O)[*:2]

Key:
[1] = system: isolated rat ventricular myocytes; settings: 0.5 mM; followed by steady decline to a new lower steady-state; cited from earlier work
Protocol: At lower concentrations (100-300 nM), IpTxa perfusion elicited several discernible stimulatory effects in most cells.

[2] = system: intact mouse ventricular myocytes; type: cell-based; settings: for speed of penetration into living isolated cardiomyocytes: conclusion, native toxin judged by [Ca2+]i transients, derivative by fluorescence
Protocol: To visualize the cell-penetrating properties of Alexa-IpTxa in intact cells, ventricular cardiomyocytes were enzymatically isolated and incubated with 5 μM Alexa-IpTxa and Alexa 488-Wheat Germ Agglutinin (10 μg/mL) for 30 min at room temperature (see Experimental Methods). The distribution of Alexa-546-IpTxa (red fluorescence) and WAG-Alexa-488 (green fluorescence) were monitored in living, unfixed cardiac myocytes.
We next sought to establish a time-course for the translocation of Alexa-IpTxa across the plasma membrane of intact cardiomyocytes. […] Clear intracellular localization of fluorescence is seen only with Alexa-IpTxa, as early as 10 min after incubation (panel D), but more intensely after 20 min incubation (panel F). In order to refine the time-course of Alexa-IpTxa penetration into cardiomyocytes, we continuously monitored the evolution of fluorescence in 3 regions of interest (ROI) corresponding to the plasma membrane and adjacent cytosol (ROI-1), the bulk cytosol (ROI-2), and the nucleus (ROI-3). A fourth ROI (not shown) was defined to monitor changes in fluorescence of the bath solution. Animations of IpTxa translocation into cells are available online as supplementary data (URL: http://www.mdpi.com/1424-8247/3/4/1093/S1).
Isolated cardiac myocytes were incubated with Alexa-546-IpTxa (5 μM) with or without WGA-Alexa 488 (10 μg/mL) for 30 min in the dark. Images were acquired with a BioRad MR-1 confocal microscope coupled to a Nikon Disphot microscope and an X60 oil immersion objective using the Lasersharp 2000 software. Confocal images are 0.25 μm sections. All experiments were performed at room temperature.
Ventricular myocytes were imaged with a Zeiss META 5 confocal microscope equipped with laser scanning. Three regions of interest were delineated corresponding to the plasma membrane (ROI-1), […]. Changes in fluorescence intensity in these regions were monitored and analyzed. Alexa-546-IpTxa fluorescence was excited with the 488 nm line of an argon laser, and emitted light was filtered by a LP 585 filter. Alexa-546-IpTxa was perfused at a concentration of 1 μM. Scans were taken every 3 seconds for a total of 351 seconds. After the time series, perfusion was turned off and the cell remained in the bath for 30 minutes. Scans were taken at 9 minutes and 30 minutes.

[3] = system: intact mouse ventricular cardiomyocytes; assay: Ca2+ imaging of field-stimulated ventricular myocytes perfused with toxin; type: cell-based
Protocol: IpTxa’s ability to induce subconducting states in single channels and to enhance binding of [^3H]ryanodine to SR vesicles distinguish it as a RyR agonist. […] Ventricular cardiomyocytes were enzymatically digested, loaded with the Ca^2+ indicator Fluo-3, and placed into the perfusion chamber of a Zeiss confocal microscope (see Experimental Methods). Cells were field-stimulated under Normal Tyrode (NT) solution, and Ca^2+ transients were recorded in line-scan mode (control). Perfusion was then changed to NT + IpTxa (in the range of 100 nM-30 µM), and transients were recorded in the presence of toxin (+IpTxa). We hypothesized that if IpTxa penetrates cardiomyocytes to reach its intracellular target, it would alter the shape of [Ca^2+]i transients elicited with field-stimulation. As expected, changes in [Ca^2+]i transients were evident within seconds of perfusion with the toxin. […] For this experiment, cells were paced at 0.5 Hz under NT solution (see Experimental Methods). Cells were scanned first without IpTxa (control transients, Figure 1A), and then IpTxa was perfused and a second scan was taken immediately afterward (Figure 1B).
Mouse ventricular myocytes were isolated by collagenase digestion of perfused mouse hearts using the method of Mitra and Morad with modification addressed by Wolska and Solaro [23]. Mice were heparinized and anesthetized […] before removal and hanging of the heart. Cells were suspended in Tyrode solution ((mM) 130 NaCl, 5.4 KCl, 0.4 NaH2PO4, 0.5 MgCl2, 25 HEPES, 22 glucose, 0.01 μg/mL insulin, pH7.4 with NaOH) and kept at room temperature until used within 6 h.
Changes in cytosolic [Ca^2+] using the Ca^2+-dependent fluorescent dye Fluo-3 AM. Fluo-3 AM was added to ventricular myocytes in Tyrodes solution (final concentration 10 μM) and incubated at room temperature for 30 minutes, after which the cells were washed and resuspended in Tyrodes solution. Fluorescence changes were monitored with a Zeiss META 5 line-scanning confocal microscope. Fluo-3 was excited at 488nm, and emissions were collected at 500-570 nm. Cells were perfused with normal Tyrodes and field-stimulated at 1 Hz. After recording control transients, synthetic, unmodified IpTxa was perfused at concentrations of 10 μM, 1 μM, and 100 nM for 10 seconds. To estimate the calcium load of the sarcoplasmic reticulum, we stopped stimulations and performed a rapid application of 10 mM caffeine to elicit complete Ca^2+ release.

Compound: Cn1c(=O)c2c(ncn2C)n(C)c1=O [caffeine]
- effect on Ca2+ transient amplitude [1]: brief increase in the amplitude of the Ca^2+ transient

Compound: CC(C)C[C@@H]1NC(=O)[C@H](Cc2c[nH]cn2)NC(=O)[C@@H]2CCCN2C(=O)[C@H](CC(C)C)NC(=O)[C@@H](NC(=O)[C@H](CC(=O)O)NC(=O)CNC(=N)CCCSC2CC(=O)N(CCCCCNC(=O)CSc3c(Cl)c(Cl)c(C(=O)O)c(C4=c5cc6c(c(S(=O)(=O)O)c5Oc5c4cc4c(c5S(=O)(=O)O)NC(C)(C)CC4C)=NC(C)(C)CC6C)c3Cl)C2=O)CSSC[C@@H]2NC(=O)[C@@H]3CSSC[C@@H](C(=O)N[C@@H](CCCNC(=N)N)C(=O)O)NC(=O)[C@H](CCCNC(=N)N)NC(=O)[C@H](CCCCN)NC(=O)[C@H](CCC(=O)O)NC(=O)[C@H](C)NC(=O)[C@H](CC(N)=O)NC(=O)[C@H]([C@@H](C)O)NC(=O)CNC(=O)[C@H](CCCNC(=N)N)NC(=O)[C@H](CCCNC(=N)N)NC(=O)[C@H](CCCCN)NC(=O)[C@H](CSSC[C@H](NC(=O)[C@H](CCCNC(=N)N)NC(=O)[C@H](CCCCN)NC1=O)C(=O)N[C@@H](CCCCN)C(=O)N[C@@H](C)C(=O)N[C@@H](CC(=O)O)C(=O)N[C@@H](CC(N)=O)C(=O)N[C@@H](CC(=O)O)C(=O)N3)NC(=O)[C@H](CCCCN)NC(=O)[C@H](CCCCN)NC(=O)CNC2=O (stereo partly drawn) [Alexa-IpTxa] (X1-[X2]DCLPHLKRCKADNDCCGKKCKRRGTNAEKRCR-OH; disulfide 3-17, 10-21, 16-32; C-terminus assumed)
- time at which clear intracellular localization of fluorescence is seen ([2]; 1 μM perfusion, confocal, more intense at later time): ≤ 10 min
- speed of penetration into living isolated cardiomyocytes [2]: slower (minutes)

Compound: CC1CC(C)(C)Nc2c1cc1c(c2S(=O)(=O)O)Oc2c(S(=O)(=O)O)c3c(cc2=C1c1c(Cl)c(SCC(=O)NCCCCCN2C(=O)C=CC2=O)c(Cl)c(Cl)c1C(=O)O)C(C)CC(C)(C)N=3 (stereo not drawn) [Alexa-maleimide, Alexa-Fluor-546-C5-maleimide, reference compound]
- membrane permeability (negative control) ([2]; as stated for the fluorophore reagent): membrane-impermeable

Compound: CC(C)C[C@@H]1NC(=O)[C@H](Cc2c[nH]cn2)NC(=O)[C@@H]2CCCN2C(=O)[C@H](CC(C)C)NC(=O)[C@@H](NC(=O)[C@H](CC(=O)O)NC(=O)CN)CSSC[C@@H]2NC(=O)[C@@H]3CSSC[C@@H](C(=O)N[C@@H](CCCNC(=N)N)C(=O)O)NC(=O)[C@H](CCCNC(=N)N)NC(=O)[C@H](CCCCN)NC(=O)[C@H](CCC(=O)O)NC(=O)[C@H](C)NC(=O)[C@H](CC(N)=O)NC(=O)[C@H]([C@@H](C)O)NC(=O)CNC(=O)[C@H](CCCNC(=N)N)NC(=O)[C@H](CCCNC(=N)N)NC(=O)[C@H](CCCCN)NC(=O)[C@H](CSSC[C@H](NC(=O)[C@H](CCCNC(=N)N)NC(=O)[C@H](CCCCN)NC1=O)C(=O)N[C@@H](CCCCN)C(=O)N[C@@H](C)C(=O)N[C@@H](CC(=O)O)C(=O)N[C@@H](CC(N)=O)C(=O)N[C@@H](CC(=O)O)C(=O)N3)NC(=O)[C@H](CCCCN)NC(=O)[C@H](CCCCN)NC(=O)CNC2=O [IpTxa, imperatoxin A] (H-GDCLPHLKRCKADNDCCGKKCKRRGTNAEKRCR-OH; disulfide 3-17, 10-21, 16-32 (inferred); N-terminus and C-terminus assumed)
- speed of penetration into living isolated cardiomyocytes [2]: rapid (few seconds)
- effect on diastolic [Ca2+]i ([3]; 100 nM to 3 µM perfused, in some cells): elevated diastolic [Ca^2+]i
- effect on [Ca2+]i transients at high concentration ([3]; 30 µM perfused in normal Tyrode, cells paced at 0.5 Hz, Fluo indicator, line-scan confocal, representative of three of four experiments): complete cessation of [Ca^2+]i transients
- effect on [Ca2+]i transient amplitude at lower concentrations ([3]; 100-300 nM perfused, followed by gradual diminution to a new, lower steady-state, representative of 12 of 36 experiments): significant increase in the amplitude of the [Ca^2+]i transient
- lag time of effects on intracellular Ca2+ signaling after perfusion ([3]; perfusion on intact cells): 2 to 3 s
